Patent EP4714449A1, “USE OF HETEROCYCLIC COMPOUND FOR TREATING DISEASES RELATED TO RET GENETIC CHANGE AND METHOD THEREFOR” (Sichuan Kelun-Biotech Biopharmaceutical Co., Ltd., priority 2023, dated 2024)
Several values for one entry are separate records, joined by “and”; a condition that tells them apart may be missing. Equal values may be shown once. Where a name gives a salt, the structure may show the parent alone. Blank lines part the entries; values can stand above or below the molecule they belong to.

Columns and labels:
Ba/F3 KIF5B-RET^G810R = experiment: Proliferation of RET mutant cells (Cell Titer Glo); type: cell-based; conditions: for IC50: Mus musculus, BaF3, 72 h, 3 days, read-out: Inhibition IC50 (nM) of the compounds on the proliferation of the cell
Procedure: (§1) Experimental method: Ba/F3 cells (Ba/F3 KIF5B-RET^G810R, Ba/F3 KIF5B-RET^G810S, Ba/F3 KIFSB-RET^G810C) in logarithmic phase were respectively collected and inoculated into 96-well plates, with 2000 cells/95 µl/well. […] In addition, negative control wells (without the test compound) and blank control wells (without cells) were set.
(§2) Inhibition rate % = [1 - (average signal value of compound group - average signal value of blank control) / (average signal value of negative control - average signal value of blank control)] * 100%; the inhibition rate % was fitted using the four-parameter equation "log(agonist) vs response-variable slope (four parameters)" in GraphPad Prism 6.0, and the IC50 was obtained by calculation.

Ba/F3 KIF5B-RET^G810C = experiment: Proliferation of RET mutant cells (Cell Titer Glo); type: cell-based; conditions: for IC50: Mus musculus, BaF3, 72 h, 3 days, read-out: Inhibition IC50 (nM) of the compounds on the proliferation of the cell
Procedure: as §1, §2

Ba/F3 KIF5B-RET^G810S = experiment: Proliferation of RET mutant cells (Cell Titer Glo); type: cell-based; conditions: for IC50: Mus musculus, BaF3, 72 h, 3 days, read-out: Inhibition IC50 (nM) of the compounds on the proliferation of the cell
Procedure: as §1, §2

Ba/F3 KIF5B-RET^V804M = experiment: Proliferation of RET mutant cells (Cell Titer Glo); type: cell-based; conditions: for IC50: Mus musculus, BaF3, 72 h, 3 days, read-out: Inhibition IC50 (nM) of the compounds on the proliferation of the cell
Procedure: (§3) Ba/F3 cells (Ba/F3 KIF5B-RET^V804E, Ba/F3 KIF5B-RET^V804L, Ba/F3 KIF5B-RET^V804M) in logarithmic phase were respectively collected and inoculated into 96-well plates, with 1000 cells/95 µl/well. […] In addition, negative control wells (without the test compound) and blank control wells (without cells) were set.
as §2

Ba/F3 KIF5B-RET^V804L = experiment: Proliferation of RET mutant cells (Cell Titer Glo); type: cell-based; conditions: for IC50: Mus musculus, BaF3, 72 h, Ba/F3 KIFSB-RET^V804L, 3 days, read-out: Inhibition IC50 (nM) of the compounds on the proliferation of the cell
Procedure: as §3, §2

Ba/F3 KIF5B-RET^V804E = experiment: Proliferation of RET mutant cells (Cell Titer Glo); type: cell-based; conditions: for IC50: Mus musculus, BaF3, 72 h, 3 days, read-out: Inhibition IC50 (nM) of the compounds on the proliferation of the cell
Procedure: as §3, §2

RET-G810C = RET-G810C (Homo sapiens, UniProt P07949, G810C); experiment: RET inhibition experiment, HTRF KinEASE-TK kit, mutant RET-G810C enzyme; type: biochemical
[1] = tested on: non-small cell lung cancer (NSCLC); experiment: Treatment of NSCLC patients (subgroups of the clinical study); type: in vivo, human; design: disease control rate (DCR) / overall central nervous system disease control rate (CNS DCR): concentration or dose not given beside the values
Procedure: (§4) A total of 90 patients were recruited, including 70 patients with non-small cell lung cancer (NSCLC), 18 patients with medullary thyroid carcinoma (MTC), 1 patient with pancreatic cancer, and 1 patient with ovarian cancer. Compound 1-A of the present disclosure was administered once daily at dosage levels of 40-120 mg (40 mg, 60 mg, 90 mg, and 120 mg), resulting in an objective response rate (ORR) of 60% and a disease control rate (DCR) of 94% for the 90 patients.
Among the 70 NSCLC patients, there were 26 who had not been systemically pretreated, 33 who had previously been systemically pretreated (excluding first-generation selective RET inhibitors), and 11 who had been previously treated with at least first-generation selective RET inhibitor therapy.

RET-G810S = RET-G810S (Homo sapiens, UniProt P07949, G810S); experiment: RET inhibition experiment, HTRF KinEASE-TK kit, mutant RET-G810S enzyme; type: biochemical
[2] = tested on: NSCLC, MTC, Pancreatic Cancer, and Ovarian Cancer; experiment: Treatment of patients with NSCLC, MTC, pancreatic cancer and ovarian cancer; type: in vivo, human; conditions: 90 patients (70 NSCLC, 18 MTC, 1 pancreatic cancer, 1 ovarian cancer), once daily 40-120 mg
Procedure: as §4

[3] = Safety evaluation in patients with RET-altered tumors; type: in vivo, human; conditions: 109 patients with RET-altered tumors, once daily, 10-120 mg
Procedure: A total of 109 patients with RET-altered tumors were recruited, and compound 1-A of the present disclosure was administered once daily at six dosage levels of 10 mg, 20 mg, 40 mg, 60 mg, 90 mg, and 120 mg.

RET-G810R = RET-G810R (Homo sapiens, UniProt P07949, G810R); experiment: RET inhibition experiment, HTRF KinEASE-TK kit, mutant RET-G810R enzyme; type: biochemical
[4] = Table 7, comparison with BLU-667 and LOXO-292
[5] = 8 NSCLC patients pretreated with first-generation selective RET inhibitors, dosed at 90 mg or 120 mg
[6] = 26 NSCLC patients not systemically pretreated
[7] = 33 NSCLC patients systemically pretreated (excluding first-generation selective RET inhibitors)

Sequence of RET-G810S (P07949 29-1114 G810S): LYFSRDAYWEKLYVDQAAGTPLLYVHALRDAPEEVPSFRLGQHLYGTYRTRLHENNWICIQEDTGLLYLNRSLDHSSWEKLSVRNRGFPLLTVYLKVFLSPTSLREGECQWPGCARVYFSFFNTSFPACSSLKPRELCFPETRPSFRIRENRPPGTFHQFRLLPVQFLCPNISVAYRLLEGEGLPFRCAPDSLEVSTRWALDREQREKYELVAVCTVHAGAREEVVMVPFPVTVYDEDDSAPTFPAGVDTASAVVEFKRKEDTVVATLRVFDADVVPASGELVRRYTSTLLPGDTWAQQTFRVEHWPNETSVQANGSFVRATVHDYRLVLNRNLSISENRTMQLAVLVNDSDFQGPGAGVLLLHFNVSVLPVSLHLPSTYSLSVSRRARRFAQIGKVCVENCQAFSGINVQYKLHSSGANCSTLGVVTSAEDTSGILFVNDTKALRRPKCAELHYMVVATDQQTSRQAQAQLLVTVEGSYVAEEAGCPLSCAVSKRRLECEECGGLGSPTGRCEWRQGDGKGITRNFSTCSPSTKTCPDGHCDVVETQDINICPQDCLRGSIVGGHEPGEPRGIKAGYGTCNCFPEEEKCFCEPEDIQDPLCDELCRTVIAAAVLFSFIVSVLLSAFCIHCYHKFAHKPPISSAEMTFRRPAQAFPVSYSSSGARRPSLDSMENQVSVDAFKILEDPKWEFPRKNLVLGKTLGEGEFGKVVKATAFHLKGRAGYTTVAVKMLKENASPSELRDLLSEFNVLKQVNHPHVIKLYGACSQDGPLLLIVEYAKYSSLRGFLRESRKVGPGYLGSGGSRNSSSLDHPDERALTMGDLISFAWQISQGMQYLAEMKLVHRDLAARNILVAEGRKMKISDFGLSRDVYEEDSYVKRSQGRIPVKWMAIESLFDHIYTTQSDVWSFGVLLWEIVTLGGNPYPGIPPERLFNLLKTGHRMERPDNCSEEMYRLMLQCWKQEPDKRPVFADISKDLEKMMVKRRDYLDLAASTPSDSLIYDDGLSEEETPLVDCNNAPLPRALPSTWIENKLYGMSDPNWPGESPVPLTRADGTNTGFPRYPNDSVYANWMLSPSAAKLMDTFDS
Sequence of RET-G810C (P07949 29-1114 G810C): as the sequence (P07949 29-1114 G810S) above, with S782C counted along it
Sequence of RET-G810R (P07949 29-1114 G810R): as the sequence (P07949 29-1114 G810S) above, with S782R counted along it

IC50 (Ba/F3 KIF5B-RET^G810R): 116.3 ± 1.15 nM
IC50 (Ba/F3 KIF5B-RET^G810C): 477 ± 4.4 nM
IC50 (Ba/F3 KIF5B-RET^G810S): 87.83 ± 0.75 nM
IC50 (Ba/F3 KIF5B-RET^V804M): 503 ± 190 nM
IC50 (Ba/F3 KIF5B-RET^V804L): 1330 ± 666 nM
IC50 (Ba/F3 KIF5B-RET^V804E): 460 ± 32.9 nM
SMILES: COc1ccc(CN2C3CC2CN(c2ccc(-c4cc(OCC(C)(C)O)cn5ncc(C#N)c45)cn2)C3)cn1 [LOXO-292, reference compound]

IC50 (Ba/F3 KIF5B-RET^G810R): 182 ± 80 nM
IC50 (Ba/F3 KIF5B-RET^G810C): 146 ± 3.4 nM
IC50 (Ba/F3 KIF5B-RET^G810S): 29 ± 4.47 nM
IC50 (Ba/F3 KIF5B-RET^V804M): 39.5 ± 16.7 nM
IC50 (Ba/F3 KIF5B-RET^V804L): 87.1 ± 11.3 nM
IC50 (Ba/F3 KIF5B-RET^V804E): 76.2 ± 9.74 nM
SMILES: CO[C@]1(C(=O)N[C@@H](C)c2ccc(-n3cc(F)cn3)nc2)CC[C@H](c2nc(C)cc(Nc3cc(C)[nH]n3)n2)CC1 [BLU-667, reference compound]

SMILES: Cc1cc(Nc2cc(C)[nH]n2)nc(-c2ccc(N3CC4CC(C3)N4Cc3ccc(-n4cc(F)cn4)nc3)nc2)n1 [Compound 1-A, Fumarate of 2-(6-(6-((6-(4-fluoro-1H-pyrazol-1-yl)pyridin-3-yl)methyl)-3,6-diazabicyclo[3.1.1]heptan-3-yl)pyridin-3-yl)-6-methyl-N-(5-methyl-1H-pyrazol-3-yl)pyrimidin-4-amine]
IC50 (RET-G810C; [4]): 53.2 ± 10.7 nM
inhibition on RET-G810C enzyme (in words) (RET-G810C; summary of Tables 5, 6, 7): remarkably inhibited
partial response (PR), number of patients [1, 5]: 3 patients
stable disease (SD), number of patients [1, 5]: 4 patients
tumor shrinkage observed, share of patients ([1]; 8 NSCLC patients pretreated with first-generation selective RET inhibitors, dosed at 90 mg or 120 mg, 7 patients): 88%
complete response (CR), number of patients [1, 6]: 1
disease control rate (DCR) [1, 6]: 96%
partial responses (PR), number of patients [1, 6]: 20
objective response rate (ORR) ([1]; 26 NSCLC patients not systemically pretreated (21/26)): 81%
ERC1-RET fusion-positive patient achieving complete response (CR), number of patients [1, 7]: 1
disease control rate (DCR) [1, 7]: 97%
objective response rate (ORR) ([1]; 33 NSCLC patients systemically pretreated (excluding first-generation selective RET inhibitors) (23/33)): 70%
response of the NCOA4-RET fusion-positive and RELCH-RET fusion-positive patients ([1]; NSCLC patients not systemically pretreated, 1 patient each): partial responses (PR)
overall central nervous system disease control rate (CNS DCR) ([1]; NSCLC patients with brain metastasis): 100%
reductions of measurable brain lesions after treatment ([1]; six NSCLC patients with brain metastasis and measurable brain lesions, one value per patient): 100% (3×) and 69% and 47% and 17%
IC50 (RET-G810S; [4]): 2.69 ± 0.56 nM
inhibition on RET-G810S enzyme (in words) (RET-G810S; summary of Tables 3, 4, 7): remarkably inhibited
disease control rate (DCR) [2]: 94%
objective response rate (ORR) [2]: 60%
inhibiting the proliferation, comparison in words (Ba/F3 KIF5B-RET^G810R): superior to BLU-667 and Loxo-292
IC50 (Ba/F3 KIF5B-RET^G810R): 26.3 ± 5.76 nM
inhibiting the proliferation, comparison in words (Ba/F3 KIF5B-RET^G810C): superior to BLU-667 and Loxo-292
IC50 (Ba/F3 KIF5B-RET^G810C): 65.3 ± 1 nM
inhibiting the proliferation, comparison in words (Ba/F3 KIF5B-RET^G810S): superior to BLU-667 and Loxo-292
IC50 (Ba/F3 KIF5B-RET^G810S): 20.2 ± 0.35 nM
dose-limiting toxicities (DLT) [3]: No dose-limiting toxicities (DLT) were observed
maximum tolerated dose (MTD) [3]: nor was the maximum tolerated dose (MTD) reached
treatment-related adverse events (TRAE) of grade 1-2 and reversible [3]: 76.1%
inhibiting the proliferation, comparison in words (Ba/F3 KIF5B-RET^V804M): superior to BLU-667 and Loxo-292
IC50 (Ba/F3 KIF5B-RET^V804M): 25.5 ± 1.91 nM
inhibiting the proliferation, comparison in words (Ba/F3 KIF5B-RET^V804L; Ba/F3 KIF5B-RET^V804L): superior to BLU-667 and Loxo-292
IC50 (Ba/F3 KIF5B-RET^V804L): 66.6 ± 20.7 nM
inhibiting the proliferation, comparison in words (Ba/F3 KIF5B-RET^V804E): superior to BLU-667 and Loxo-292
IC50 (Ba/F3 KIF5B-RET^V804E): 59.8 ± 8.33 nM
IC50 (RET-G810R; [4]): 19.6 ± 0.67 nM
inhibition on RET-G810R enzyme (in words) (RET-G810R; summary of Tables 1, 2, 7): remarkably inhibited
